Measured values as given in patent US9518015B2, “EP1 receptor ligands” (LABORATORIOS DEL DR. ESTEVE, S.A., priority 2011, dated 2016).
Where a name gives a salt, the structure may show the parent alone.

Legend:
human EP1 receptor [1] = biological target: T1, human EP1 receptor (Homo sapiens, UniProt P34995); test: Test 1: Human EP1 receptor radioligand binding assay ([3H]-PGE2, transfected HEK-293 cell membranes); design: expressed in transfected cells; host or cells: HEK-293 cell membranes; conditions: for inhibition at 10 µM: read-out: Results of Test 1 (Binding assay), % inh; for Results of Test 1 (Binding assay), % inh: at 10 μM
T1 sequence (P34995 1-402): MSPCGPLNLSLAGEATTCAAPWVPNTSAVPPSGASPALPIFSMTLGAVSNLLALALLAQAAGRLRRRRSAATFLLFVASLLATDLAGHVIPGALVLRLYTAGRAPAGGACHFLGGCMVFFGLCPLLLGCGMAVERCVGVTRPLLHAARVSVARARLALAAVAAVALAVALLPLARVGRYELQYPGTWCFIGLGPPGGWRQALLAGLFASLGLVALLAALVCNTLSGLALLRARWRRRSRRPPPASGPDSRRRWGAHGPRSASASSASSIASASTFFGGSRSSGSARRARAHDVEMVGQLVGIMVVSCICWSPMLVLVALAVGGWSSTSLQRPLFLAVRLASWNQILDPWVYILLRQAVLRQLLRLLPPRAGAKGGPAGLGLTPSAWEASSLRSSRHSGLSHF
Procedure, shortened: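 Membranes from transfected HEK-293 cells (30 μg protein) incubated with 10 nM [3H]-PGE2 in pH 6.0 MES buffer for 60 min at 25° C., then filtered and counted by scintillation. Percent inhibition set against total binding and 10 μM PGE2 non-specific binding.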

human EP1 receptor [2] = biological target: T1, human EP1 receptor; test: Test 3: Measurement of IP1 responses by HTRF, HEK-293 cells stably expressing human EP1 receptors incubated o/n, PGE2 10 nM; type: cell-based; design: expressed in transfected cells; conditions: for inhibition at 10 µM: HEK293, read-out: Results of Test 3 (Functional assay), % inh; for Results of Test 3 (Functional assay), % inh: at 10 μM
Protocol: Test 3: Measurement of IP1 Responses by Homogeneous Time Resolved Fluorescence
IP1 measurements on HEK-293 cells that stably expressed human EP1 receptors were performed by using a system based on Homogeneous Time Resolved Fluorescense (HTRF) (Gabriel et al., 2003). This technology allows the direct measurement of IP1 in living cells. The principle of this assay is based on competition between IP1 produced by cells and IP1-d2 conjugate for the binding with monoclonal anti-IP1-cryptate conjugate. The HTRF IP1 kit from CisBio was used according to the manufacturer's directions. The experimental procedure was performed as stated below.
40,000 cells per well were added to 96-well culture plates in 40 μl of Optimem and incubated o/n at 37° C. Optimem was replaced by 40 μl of stimulation buffer (supplied by the kit) and compounds were then added in 20 μl of stimulation buffer and incubated at 37° C. for 15 minutes followed by 10 μl of PGE2 to a final concentration of 10 nM. After 90 minutes at 37° C., the reaction was stopped lysing the cells with a mixture of 15 μl of cryptate and 15 μl of IP1-d2 prepared in the lysis buffer supplied by the manufacturer. Plates were incubated for an additional hour at room temperature and read at 665 nm/620 nm using an UltraEvolution Plate reader (Tecan).
Antagonist percentage inhibition was calculated relating compounds activity to the 0% inhibition of the wells incubated with 10 nM PGE2 alone and 100% inhibition of the wells incubated with 10 nM PGE2 plus 10 μM of the reference antagonist.

Structure (SMILES)	inhibition at 10 µM (human EP1 receptor [1]) [%]	inhibition at 10 µM (human EP1 receptor [2]) [%]	Results of Test 1 (Binding assay), % inh (human EP1 receptor [1])	Results of Test 3 (Functional assay), % inh (human EP1 receptor [2])
O=C(O)c1ccnc2c1CCN2Cc1cc(Cl)ccc1OCc1ccc(Cl)cc1F [Example 216, sodium 1-{5-chloro-2-[(4-chloro-2-fluorobenzyl)oxy]benzyl}-2,3-dihydro-1H-pyrrolo[2,3-b]pyridine-4-carboxylate]	> 75	> 75	–	–
O=C([O-])c1ccnc2c1CCN2Cc1cc(Cl)ccc1OCc1ccc(F)cc1.[Na+] [Example 220]	–	–	# (% inh > 75)	$ (% inh > 75)
O=C(O)c1cncc2c1CCCN2Cc1cc(Cl)ccc1OCc1ccc(F)cc1F [Example 227]	> 75	> 75	–	–
CC(C)COc1ccc(Cl)cc1CN1CCc2c(C(=O)NS(C)(=O)=O)ccnc21 [Example 234, 1-(5-chloro-2-isobutoxybenzyl)-N-(methylsulfonyl)-2,3-dihydro-1H-pyrrolo[2,3-b]pyridine-4-carboxamide sodium salt]	> 75	> 75	–	–
O=C(O)c1cncc2c1CCCN2Cc1ccccc1OCc1ccc(Cl)cc1F [Example 240]	> 75	> 75	–	–
CC(C)(F)COc1ccc(Cl)cc1CN1CCCc2c(C(=O)O)cncc21 [Example 242]	> 75	> 75	–	–

The remaining lines, values ahead:

inhibition at 10 µM (human EP1 receptor [1]) [%]	inhibition at 10 µM (human EP1 receptor [2]) [%]	Results of Test 1 (Binding assay), % inh (human EP1 receptor [1])	Results of Test 3 (Functional assay), % inh (human EP1 receptor [2])	Structure (SMILES)
> 75	> 75	–	–	O=C(O)c1ccnc2c1cnn2Cc1cc(Cl)ccc1OCc1ccc(Cl)cc1F [Example 212, sodium 1-{5-chloro-2-[(4-chloro-2-fluorobenzyl)oxy]benzyl}-1H-pyrazolo[3,4-b]pyridine-4-carboxylate]
–	–	# (% inh > 75)	$ (% inh > 75)	O=C([O-])c1ccnc2c1CCN2Cc1cc(Cl)ccc1OCc1ccc(F)cc1F.[Na+] [Example 217]
–	–	# (% inh > 75)	$ (% inh > 75)	CC(C)(F)COc1ccc(Cl)cc1CN1CCc2c(C(=O)[O-])ccnc21.[Na+] [Example 221]
> 75	> 75	–	–	O=C(O)c1cncc2c1CCCN2Cc1cc(Cl)ccc1OCc1ccc(Cl)cc1F [Example 226, Sodium 1-{5-chloro-2-[(4-chloro-2-fluorobenzyl)oxy]benzyl}-1,2,3,4-tetrahydro-1,7-naphthyridine-5-carboxylate]
> 75	45 to 75	–	–	CN(C)S(=O)(=O)NC(=O)c1cccc2c1CCCN2Cc1cc(Cl)ccc1OCc1ccc(Cl)cc1F [Example 237, 1-{5-chloro-2-[(4-chloro-2-fluorobenzyl)oxy]benzyl}-N-[(dimethylamino)sulfonyl]-1,2,3,4-tetrahydroquinoline-5-carboxamide sodium salt]
> 75	> 75	–	–	O=C(O)c1cncc2c1CCCN2Cc1cc(F)ccc1OCc1ccc(F)cc1F [Example 243]
> 75	> 75	–	–	O=C(O)c1cncc2c1CCN2Cc1cc(Cl)ccc1OCc1ccc(Cl)cc1F [Example 248, sodium 1-{5-chloro-2-[(4-chloro-2-fluorobenzyl)oxy]benzyl}-2,3-dihydro-1H-pyrrolo[2,3-c]pyridine-4-carboxylate]
